Measured values as given in the supplement of paper PMC10307832.

Key:
Test in all cases: relative viability (nuclei count vs DMSO), 5 days (fraction); higher = more cells survive
ChaGo-K-1 = system: ChaGo-K-1
Procedure, shortened: (§1)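 Dosing by pin tool came one day after lung cancer cell lines were seeded in 1536-well plates, using either one drug or a fixed anchor-drug dose plus five library-drug doses (not always all listed) in √10 steps. After 5 days, nuclei were counted on 4× images. Relative viability is treated-well nuclei count divided by vehicle-well nuclei count, and values are medians of duplicate plates.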

LXF-289 = system: LXF-289
Procedure, shortened: as §1

PC-3 [JPC-3] = system: PC-3 [JPC-3]
Procedure, shortened: as §1

NCI-H661 = system: NCI-H661
Procedure, shortened: as §1

NCI-H1651 = system: NCI-H1651
Procedure, shortened: as §1

NCI-H1355 = system: NCI-H1355
Procedure, shortened: as §1

NCI-H838 = system: NCI-H838
Procedure, shortened: as §1

NCI-H1975 = system: NCI-H1975
Procedure, shortened: as §1

NCI-H2342 = system: NCI-H2342
Procedure, shortened: as §1

NCI-H650 = system: NCI-H650
Procedure, shortened: as §1

LCLC-97TM1 = system: LCLC-97TM1
Procedure, shortened: as §1

NCI-H596 = system: NCI-H596
Procedure, shortened: as §1

NCI-H1666 = system: NCI-H1666
Procedure, shortened: as §1

HCC-78 = system: HCC-78
Procedure, shortened: as §1

LK-2 = system: LK-2
Procedure, shortened: as §1

LU99A = system: LU99A
Procedure, shortened: as §1

NCI-H358 = system: NCI-H358
Procedure, shortened: as §1

NCI-H1944 = system: NCI-H1944
Procedure, shortened: as §1

BEN = system: BEN
Procedure, shortened: as §1

NCI-H2087 = system: NCI-H2087
Procedure, shortened: as §1

SK-MES-1 = system: SK-MES-1
Procedure, shortened: as §1

LC-2-ad = system: LC-2-ad
Procedure, shortened: as §1

## Cc1sc2c(c1C)C(c1ccc(Cl)cc1)=N[C@@H](CC(=O)OC(C)(C)C)c1nnc(C)n1-2 [JQ1] + N=C(N)NC(=N)NCCc1ccccc1 [Phenformin] (partner 250 µM)
ChaGo-K-1; first compound 0.04 µM
  relative viability: 0.436
ChaGo-K-1; first compound 0.1265 µM
  relative viability: 0.495
ChaGo-K-1; first compound 0.4 µM
  relative viability: 0.401
ChaGo-K-1; first compound 1.265 µM
  relative viability: 0.324
ChaGo-K-1; first compound 4 µM
  relative viability: 0.286
LXF-289; first compound 0.04 µM
  relative viability: 0.518
LXF-289; first compound 0.1265 µM
  relative viability: 0.474
LXF-289; first compound 0.4 µM
  relative viability: 0.444
LXF-289; first compound 1.265 µM
  relative viability: 0.323
LXF-289; first compound 4 µM
  relative viability: 0.316
PC-3 [JPC-3]; first compound 0.04 µM
  relative viability: 0.466
PC-3 [JPC-3]; first compound 0.1265 µM
  relative viability: 0.474
PC-3 [JPC-3]; first compound 0.4 µM
  relative viability: 0.46
PC-3 [JPC-3]; first compound 1.265 µM
  relative viability: 0.461
PC-3 [JPC-3]; first compound 4 µM
  relative viability: 0.376
NCI-H661; first compound 0.04 µM
  relative viability: 0.264
NCI-H661; first compound 0.1265 µM
  relative viability: 0.315
NCI-H661; first compound 0.4 µM
  relative viability: 0.286
NCI-H661; first compound 1.265 µM
  relative viability: 0.302
NCI-H661; first compound 4 µM
  relative viability: 0.282
NCI-H1651; first compound 0.04 µM
  relative viability: 0.265
NCI-H1651; first compound 0.1265 µM
  relative viability: 0.249
NCI-H1651; first compound 0.4 µM
  relative viability: 0.305
NCI-H1651; first compound 1.265 µM
  relative viability: 0.245
NCI-H1651; first compound 4 µM
  relative viability: 0.241
NCI-H1355; first compound 0.04 µM
  relative viability: 0.45
NCI-H1355; first compound 0.1265 µM
  relative viability: 0.473
NCI-H1355; first compound 0.4 µM
  relative viability: 0.433
NCI-H1355; first compound 1.265 µM
  relative viability: 0.388
NCI-H1355; first compound 4 µM
  relative viability: 0.326
NCI-H838; first compound 0.04 µM
  relative viability: 0.554
NCI-H838; first compound 0.1265 µM
  relative viability: 0.285
NCI-H838; first compound 0.4 µM
  relative viability: 0.372
NCI-H838; first compound 1.265 µM
  relative viability: 0.253
NCI-H838; first compound 4 µM
  relative viability: 0.17
NCI-H1975; first compound 0.04 µM
  relative viability: 0.41
NCI-H1975; first compound 0.1265 µM
  relative viability: 0.31
NCI-H1975; first compound 0.4 µM
  relative viability: 0.381
NCI-H1975; first compound 1.265 µM
  relative viability: 0.299
NCI-H1975; first compound 4 µM
  relative viability: 0.297
NCI-H2342; first compound 0.04 µM
  relative viability: 0.604
NCI-H2342; first compound 0.1265 µM
  relative viability: 0.57
NCI-H2342; first compound 0.4 µM
  relative viability: 0.694
NCI-H2342; first compound 1.265 µM
  relative viability: 0.809
NCI-H2342; first compound 4 µM
  relative viability: 0.663
NCI-H650; first compound 0.04 µM
  relative viability: 0.418
NCI-H650; first compound 0.1265 µM
  relative viability: 0.358
NCI-H650; first compound 0.4 µM
  relative viability: 0.313
NCI-H650; first compound 1.265 µM
  relative viability: 0.273
NCI-H650; first compound 4 µM
  relative viability: 0.25
LCLC-97TM1; first compound 0.04 µM
  relative viability: 0.423
LCLC-97TM1; first compound 0.1265 µM
  relative viability: 0.42
LCLC-97TM1; first compound 0.4 µM
  relative viability: 0.446
LCLC-97TM1; first compound 1.265 µM
  relative viability: 0.328
LCLC-97TM1; first compound 4 µM
  relative viability: 0.203
NCI-H596; first compound 0.04 µM
  relative viability: 0.702
NCI-H596; first compound 0.1265 µM
  relative viability: 0.812
NCI-H596; first compound 0.4 µM
  relative viability: 0.829
NCI-H596; first compound 1.265 µM
  relative viability: 0.374
NCI-H596; first compound 4 µM
  relative viability: 0.348
NCI-H1666; first compound 0.04 µM
  relative viability: 0.572
NCI-H1666; first compound 0.1265 µM
  relative viability: 0.596
NCI-H1666; first compound 0.4 µM
  relative viability: 0.501
NCI-H1666; first compound 1.265 µM
  relative viability: 0.516
NCI-H1666; first compound 4 µM
  relative viability: 0.486
HCC-78; first compound 0.04 µM
  relative viability: 0.727
HCC-78; first compound 0.1265 µM
  relative viability: 0.657
HCC-78; first compound 0.4 µM
  relative viability: 0.727
HCC-78; first compound 1.265 µM
  relative viability: 0.515
HCC-78; first compound 4 µM
  relative viability: 0.435
LK-2; first compound 0.04 µM
  relative viability: 0.298
LK-2; first compound 0.1265 µM
  relative viability: 0.379
LK-2; first compound 0.4 µM
  relative viability: 0.21
LK-2; first compound 1.265 µM
  relative viability: 0.101
LK-2; first compound 4 µM
  relative viability: 0.147
LU99A; first compound 0.04 µM
  relative viability: 0.776
LU99A; first compound 0.1265 µM
  relative viability: 0.35
LU99A; first compound 0.4 µM
  relative viability: 0.734
LU99A; first compound 1.265 µM
  relative viability: 0.303
LU99A; first compound 4 µM
  relative viability: 0.26
NCI-H358; first compound 0.04 µM
  relative viability: 0.355
NCI-H358; first compound 0.1265 µM
  relative viability: 0.335
NCI-H358; first compound 0.4 µM
  relative viability: 0.361
NCI-H358; first compound 1.265 µM
  relative viability: 0.198
NCI-H358; first compound 4 µM
  relative viability: 0.161
NCI-H1944; first compound 0.04 µM
  relative viability: 0.195
NCI-H1944; first compound 0.1265 µM
  relative viability: 0.174
NCI-H1944; first compound 0.4 µM
  relative viability: 0.191
NCI-H1944; first compound 1.265 µM
  relative viability: 0.149
NCI-H1944; first compound 4 µM
  relative viability: 0.182
BEN; first compound 0.04 µM
  relative viability: 0.273
BEN; first compound 0.1265 µM
  relative viability: 0.296
BEN; first compound 0.4 µM
  relative viability: 0.303
BEN; first compound 1.265 µM
  relative viability: 0.309
BEN; first compound 4 µM
  relative viability: 0.215
NCI-H2087; first compound 0.04 µM
  relative viability: 0.52
NCI-H2087; first compound 0.1265 µM
  relative viability: 0.406
NCI-H2087; first compound 0.4 µM
  relative viability: 0.406
NCI-H2087; first compound 1.265 µM
  relative viability: 0.266
NCI-H2087; first compound 4 µM
  relative viability: 0.273
SK-MES-1; first compound 0.04 µM
  relative viability: 0.672
SK-MES-1; first compound 0.1265 µM
  relative viability: 0.496
SK-MES-1; first compound 0.4 µM
  relative viability: 0.428
SK-MES-1; first compound 1.265 µM
  relative viability: 0.307
SK-MES-1; first compound 4 µM
  relative viability: 0.199
LC-2-ad; first compound 0.04 µM
  relative viability: 0.537
LC-2-ad; first compound 0.1265 µM
  relative viability: 0.468
LC-2-ad; first compound 0.4 µM
  relative viability: 0.401
LC-2-ad; first compound 1.265 µM
  relative viability: 0.222
LC-2-ad; first compound 4 µM
  relative viability: 0.294
